Entries after “also recorded” stand apart in the source; their conditions may differ.

One data set addresses T1, TRPC4 (Homo sapiens, UniProt Q9UBN4).
T1 construct: expressed in transfected cells
T1 sequence (Q9UBN4 1-982 isoform Q9UBN4-5): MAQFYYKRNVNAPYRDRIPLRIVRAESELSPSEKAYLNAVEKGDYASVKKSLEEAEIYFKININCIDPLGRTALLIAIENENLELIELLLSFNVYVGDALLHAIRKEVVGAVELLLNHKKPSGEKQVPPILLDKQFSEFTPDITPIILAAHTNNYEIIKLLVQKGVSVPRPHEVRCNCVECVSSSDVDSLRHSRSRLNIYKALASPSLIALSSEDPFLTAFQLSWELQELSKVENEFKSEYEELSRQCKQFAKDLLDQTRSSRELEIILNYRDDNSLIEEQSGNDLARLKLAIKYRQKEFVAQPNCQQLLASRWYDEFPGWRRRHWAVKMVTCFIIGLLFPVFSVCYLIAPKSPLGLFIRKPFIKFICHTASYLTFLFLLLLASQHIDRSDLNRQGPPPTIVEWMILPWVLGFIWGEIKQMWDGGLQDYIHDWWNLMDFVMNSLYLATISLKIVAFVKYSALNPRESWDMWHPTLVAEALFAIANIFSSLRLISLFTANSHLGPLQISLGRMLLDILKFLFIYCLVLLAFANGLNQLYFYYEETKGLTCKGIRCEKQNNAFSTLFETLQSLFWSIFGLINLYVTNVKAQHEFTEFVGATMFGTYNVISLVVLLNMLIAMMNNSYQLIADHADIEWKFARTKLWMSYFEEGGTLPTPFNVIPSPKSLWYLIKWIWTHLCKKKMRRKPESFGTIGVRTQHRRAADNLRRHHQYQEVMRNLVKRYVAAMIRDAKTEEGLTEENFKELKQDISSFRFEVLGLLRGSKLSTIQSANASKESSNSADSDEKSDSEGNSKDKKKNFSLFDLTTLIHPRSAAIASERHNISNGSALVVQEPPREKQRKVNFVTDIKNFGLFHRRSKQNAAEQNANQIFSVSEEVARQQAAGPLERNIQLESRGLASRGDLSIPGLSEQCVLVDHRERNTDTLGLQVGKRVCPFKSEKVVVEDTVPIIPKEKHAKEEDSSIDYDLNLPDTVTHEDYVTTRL
The data set is described as follows: TRPC4 activity assay (FLIPR calcium fluorescence, HEK-TREx hTRPC4 cells). The class given is cell-based. The following applies: Table 5, HEK-TREx hTRPC4; read-out: TRPC4 FLIPR IC50. The method, then: ICLN-1694 cells (HEK-TREx hTRPC4) expressing TRPC4 were generated as follows. Commercially available HekTrex-293 cells were seeded at 0.7×10^6 cells/well in a 1×6-well plate 24 hrs prior to transfection using 2 mL cell growth media containing no antibiotics (lx DMEM/high glucose (Hyclone #SH30022.02); 10% fetal bovine serum (Sigma) 2 mM sodium pyruvate, 10 mM HEPES). […] On day 2, 2 μg of plasmid DNA plus 6 μl of Xtreme-GENE HP reagent in Optimem (200 μl total volume) was prepared and incubated for 15 min at room temperature. This plasmid solution was then gently overlayed dropwise onto each well and the plate was gently swirled to mix complex with the media for approximately 30 seconds. Transfected cells were incubated at 37° C. in a 10% CO2 incubator for 24 hrs. The transfected cells were harvested and transferred into 2×150 mm dishes containing cell growth media with no antibiotics at 37° C.
The next day selection was initiated to generate a stable pool by adding cell growth media containing 150 μg/mL Hygromycin and 5 μg/mL Blasticidin and cells were allowed to grow. Media with the selection agent was changed every 1-2 days as needed to remove dead cells. After 7 days, the hygromycin concentration was reduced to 75 μg/mL and cells growth was allowed to continue.
Single clones were selected as follows. The stable pool was diluted to 10 cells/mL and seeded (100 μl/well) into 24×96 well plates (˜1 cell/well) and allowed to grow for 7 days in cell growth media. Fresh media (100 μl) was added and the cells allowed to grow for another 1-2 weeks and then stored frozen or used immediately.
10-point dose response curves were generated using the Echo-550 acoustic dispenser. Compound source plates were made by serially diluting compound stocks to create 10 mM, 1 mM, and 0.1 mM solutions in DMSO into Echo-certified LDV plates. The Echo then serially spotted 100% DMSO stock solutions into source dose response plates to generate a 4-fold dilution scheme. 100% DMSO was added to the spotted dose response plates to bring the final volume to 5 μl. 300 nl of the dose response stock plate was then spotted into pre-incubation and stimulation assay plates. 50 μl of pre-incubation buffer and 100 μl of stimulation buffer was then added to the plates resulting in a final assay test concentration range of 30 μM to 0.0001 μM with a final DMSO concentration of 0.3%.
ICLN-1694 cells (HEK-TREx hTRPC4) were plated onto 384 well, black pdl-coated microplates and maintained in cell growth media supplemented with 1 μg/mL tetracycline the day prior to use for experiments. TRPC4 expression was induced by the application of 1 μg/mL tetracycline at the time of plating. […] Cells were incubated at room temperature, protected from light, for 60-90 minutes. After the incubation period, the dye was removed and replaced with 10 μl of EBSS. Cell, pre-incubation and stimulation plates were loaded onto the FLIPR-II and the assay was initiated. The FLIPR measured a 10 second baseline and then added 10 μl of 2× compounds (or controls). Changes in fluorescence were monitored for an additional 5 minutes. After a 5 minute pre-incubation, 20 μl of 2× Englerin A (with 1× compound or controls) was added to the cell plate. The final Engerlin A stimulation concentration in the assay was 100 nM. After the Englerin A addition, changes in fluorescence were monitored for an additional 5 minutes.
Compound modulation of TRPC4 calcium response was determined as follows. After the Englerin A, fluorescence was monitored for a 5-minute period. The maximum relative fluorescence response (minus the control response of 1 μM of an internal control compound known to maximally block TRPC4 calcium response, the “REF INHIB” in the formula below) was captured and exported from the FLIPR.
Compound effect is calculated as % inhibition using the following formula: […]
wherein “RFU” is the relative fluorescent units.

A further data set has as its system PAN-injured rats. The data set is described as follows: Puromycin aminonucleoside (PAN)-induced glomerular injury in rats. Type of data set: in vivo, Sprague-Dawley rats. The note with it: for albuminuria: PAN model of glomerular injury in rats. From the text:
The objective of this study is to evaluate the dose-dependent effects of compound 100 on PAN induced glomerular kidney injury as indexed by albuminuria. Eighty (80), male Sprague-Dawley rats weighing approximately 125-150 g and approximately 5-6 weeks of age were acquired from Charles River. They were fed a standard chow diet (Harlan 8640), housed under standard conditions, and allowed to acclimate for at least 5 days prior to study inception. On D-2, rats were placed into weight-matched treatment groups and were placed, individually housed, into metabolic cages for the balance of the study. A 24 hour baseline (Day 0) urine was collected followed by a baseline blood collection via conscious tail venous puncture. Rats were then administered vehicle or test article. Two (2) hours following administration of vehicle or test agent on Day 0, rats received an administration of (5 mL/kg, s.c.) vehicle (sterile saline) or puromycin aminonucleoside (PAN; challenge agent; 75 mg/kg) dissolved in vehicle. Intermittent (Day 4, 7 and 10) 24 hour urine volumes were determined and samples (4 samples/animal/time point; 0.5 mL/sample) were obtained. Additionally, intermittent (Day 4, 7 and 10) blood samples were collected via conscious tail venous puncture 2 hours±1 minute post-AM dose. Immediately following the last blood collection, rats were anesthetized with isoflurane, tissues harvested, and animals sacrificed. Endpoint kidney weights and indices were obtained. Urine samples were immediately flash-frozen in liquid N2 and stored at −80° C. until analyzed. Whole blood samples collected on K3EDTA were processed appropriately for the production of plasma for PK measurements.

The test system of a further data set is AT1R transgenic rats. The data set is described as follows: AT1R transgenic rat model of FSGS. Type of data set: in vivo. The following applies: oral once daily 3 mg/kg or 10 mg/kg; UniNX and AngII infusion; up to 3 weeks of treatment. As to the method:
The AT1R transgenic rat model of FSGS is characterized by podocyte-specific expression of human AT1R. […] See Zhou et al., Science (2017), vol. 358 (6368), 1332-1336. In the present study, pathophysiology in AT1R transgenic rats was accelerated with unilateral nephrectomy (UniNX) and minipump AngII infusion. Compound 100 was dosed orally once daily at 3 mg/kg or 10 mg/kg, and the urine protein creatinine ratio was determined at −1, 0, 1, 2, and 3 weeks of treatment.

The nature of data set [1]: Drug exposure in human kidney organoid implanted under the rat kidney capsule after oral dosing. The class given is in vivo. The following applies: 10 mg/kg PO QD for 3 consecutive days, necropsy after 3 days. The method, then: Initially a space was created under the kidney capsule with angled fine forceps. A 22G blunt needle was used to further open the space under the kidney capsule. An angled cut was made at the tip of the 18G feeding tube attached to a 1 mL syringe. The 18G feeding tube was pre-wet with APEL2 medium, and one organoid from the dish containing APEL2 with the 18G feeding tube was carefully aspirated, keeping the entire organoid close to the tip of the 18G feeding tube, and not aspirating organoid into the syringe. An 18G feeding tube containing the organoid was inserted into the space created under the kidney capsule, and the organoid was injected towards the back end of the created space. The animal was closed, and then the procedure was repeated on the second kidney. After the second transplant, the animal was closed again and allowed to recover from anesthesia. The next organoid was started to be removed from TW (2+1 spare organoids) upon closing of animal after second kidney capsule transplant.
Compound 100 was administered to animals after transplant orally, once-daily as follows:
After 3 days, necropsy was performed to study distribution of compound 100 in the animal.

For `CC(c1ccc(F)cc1C(F)(F)F)N1C[C@@H](C)N(c2cn[nH]c(=O)c2Cl)CC1=O` (single isomer, unassigned) [MD], the IC50 at TRPC4 lay in the range of 0.01 to 1000 nM.

On to `O=c1[nH]ncc(N2CCc3c(ncnc3Oc3ccc(F)cc3C(F)(F)F)C2)c1Cl` [Compound 100, 4-chloro-5-[4-[4-fluoro-2-(trifluoromethyl)phenoxy]-5H,6H,7H,8H-pyrido[3,4-d]pyrimidin-7-yl]-2,3-dihydropyridazin-3-one], for which the urinary albumin excretion result in the data set on PAN-injured rats (30 mg/kg BID dosing, at 7 and 10 days) was “Significant reductions”; with PAN-injured rats (30 mg/kg QD dosing, at 10 days) it was “Significant reductions”; in the data set on PAN-injured rats (30 mg/kg once (QD) or twice (BID) daily, following injury with PAN), “reduced urinary albumin excretion”. The albuminuria entry with PAN-injured rats is “effective in reducing albuminuria”. Further, the “efficacy (urine protein creatinine ratio)” value with AT1R transgenic rats is reported as “efficacious”. Moreover, the “drug exposure in implanted organoid” value in data set [1] is on record as “drug exposure in the implanted organoid; also recorded: drug exposure in an implanted organoid”.

For `NC(=O)c1ncn([C@@H]2O[C@H](CO)[C@@H](O)[C@H]2O)c1O` [Mizoribine, mizoribine, reference compound], in the data set on PAN-injured rats, the albuminuria entry is “efficacious in reducing albuminuria”.

For orientation: IC50 means the concentration that gives 50% inhibition.

Source of the values: patent US20220152031A1, “PYRIDAZINONES AND METHODS OF USE THEREOF” (Goldfinch Bio, Inc., priority 2019, published 2022).
